Here are results for 10 compounds from ChEMBL document CHEMBL1143275, “Positive allosteric modulators of the metabotropic glutamate receptor subtype 4 (mGluR4). Part II: Challenges in hit-to-lead” (Bioorg Med Chem Lett, 2009).

pEC50: −log10 of the molar value. Activity calls are given as the source filed them. No cut-off for these calls is given here.

Test [1] deals with T1, Metabotropic glutamate receptor 4 (Homo sapiens, UniProt Q14833). In words: Activation of human mGluR4 expressed in CHO cells coexpressing Gqi5 protein assessed as potentiation of glutamate-induced response. It counts as cell-based.
T1 sequence (Q14833 whole entry): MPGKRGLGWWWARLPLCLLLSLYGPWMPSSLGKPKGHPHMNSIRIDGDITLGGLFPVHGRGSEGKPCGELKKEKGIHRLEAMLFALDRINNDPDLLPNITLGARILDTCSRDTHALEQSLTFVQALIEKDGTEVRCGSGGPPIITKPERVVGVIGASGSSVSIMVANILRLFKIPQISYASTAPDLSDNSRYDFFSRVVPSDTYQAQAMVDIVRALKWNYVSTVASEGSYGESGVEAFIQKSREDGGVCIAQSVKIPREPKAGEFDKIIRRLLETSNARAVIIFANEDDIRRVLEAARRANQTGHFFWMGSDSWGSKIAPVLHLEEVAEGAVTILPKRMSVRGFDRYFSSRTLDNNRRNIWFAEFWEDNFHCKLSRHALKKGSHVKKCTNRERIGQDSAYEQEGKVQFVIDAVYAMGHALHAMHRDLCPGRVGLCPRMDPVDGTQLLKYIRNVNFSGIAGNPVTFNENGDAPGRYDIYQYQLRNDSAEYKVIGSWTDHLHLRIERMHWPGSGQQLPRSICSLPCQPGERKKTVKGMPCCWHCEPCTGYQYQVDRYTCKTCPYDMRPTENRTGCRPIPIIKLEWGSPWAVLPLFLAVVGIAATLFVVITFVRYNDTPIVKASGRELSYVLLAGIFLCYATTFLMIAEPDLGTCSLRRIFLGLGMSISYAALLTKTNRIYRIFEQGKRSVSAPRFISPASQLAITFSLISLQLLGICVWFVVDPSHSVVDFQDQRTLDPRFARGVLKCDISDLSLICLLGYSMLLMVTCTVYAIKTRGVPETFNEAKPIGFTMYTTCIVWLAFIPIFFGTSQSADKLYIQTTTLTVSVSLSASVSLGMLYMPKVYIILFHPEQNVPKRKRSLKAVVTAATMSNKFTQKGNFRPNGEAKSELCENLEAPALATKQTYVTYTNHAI
For test [2], the target named is T1, Metabotropic glutamate receptor 4. Description: Activation of human mGluR4 expressed in CHO cells coexpressing Gqi5 protein assessed as potentiation of glutamate-induced response relative to glutamate alone. It counts as cell-based. The arrangement: concentration or dose not given beside the values.
Test [3] deals with Metabotropic glutamate receptor 1 (Homo sapiens) (UniProt Q13255). Description: Antagonist activity at mGluR1 assessed as effect on glutamate-induced response. It counts as functional. Set-up: scale not given: the % may be the effect or the level left.
Sequence of Metabotropic glutamate receptor 1 (Homo sapiens) (Q13255 19-1194 limits assumed): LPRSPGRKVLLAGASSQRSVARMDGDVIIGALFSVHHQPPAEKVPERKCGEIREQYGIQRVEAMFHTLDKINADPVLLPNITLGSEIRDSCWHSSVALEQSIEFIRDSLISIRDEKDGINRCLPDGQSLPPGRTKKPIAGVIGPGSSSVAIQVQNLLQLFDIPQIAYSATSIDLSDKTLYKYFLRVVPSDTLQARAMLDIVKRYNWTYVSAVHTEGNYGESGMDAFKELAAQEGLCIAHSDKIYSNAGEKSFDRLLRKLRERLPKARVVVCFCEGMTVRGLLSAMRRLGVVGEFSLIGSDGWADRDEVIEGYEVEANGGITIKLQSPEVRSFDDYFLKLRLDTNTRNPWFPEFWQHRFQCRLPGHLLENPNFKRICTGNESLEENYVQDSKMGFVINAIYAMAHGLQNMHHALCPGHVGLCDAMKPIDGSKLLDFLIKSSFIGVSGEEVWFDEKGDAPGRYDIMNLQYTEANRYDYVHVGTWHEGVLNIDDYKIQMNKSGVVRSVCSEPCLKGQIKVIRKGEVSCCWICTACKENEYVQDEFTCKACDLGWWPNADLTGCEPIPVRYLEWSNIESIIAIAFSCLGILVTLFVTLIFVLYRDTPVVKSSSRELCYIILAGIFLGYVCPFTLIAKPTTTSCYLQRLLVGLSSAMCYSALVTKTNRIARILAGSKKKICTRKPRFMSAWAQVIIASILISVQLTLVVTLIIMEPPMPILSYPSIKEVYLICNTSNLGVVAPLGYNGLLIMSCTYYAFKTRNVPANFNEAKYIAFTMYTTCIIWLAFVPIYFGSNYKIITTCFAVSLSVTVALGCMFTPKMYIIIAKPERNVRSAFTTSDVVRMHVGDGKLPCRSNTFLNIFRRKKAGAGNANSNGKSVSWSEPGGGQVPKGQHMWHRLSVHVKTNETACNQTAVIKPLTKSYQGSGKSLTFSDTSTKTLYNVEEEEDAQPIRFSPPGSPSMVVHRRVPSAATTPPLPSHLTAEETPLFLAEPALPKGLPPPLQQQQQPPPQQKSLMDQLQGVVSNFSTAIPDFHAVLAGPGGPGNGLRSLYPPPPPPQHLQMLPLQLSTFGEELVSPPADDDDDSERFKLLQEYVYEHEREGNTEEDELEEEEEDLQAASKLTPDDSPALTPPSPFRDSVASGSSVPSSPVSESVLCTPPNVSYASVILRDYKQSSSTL
Test [4] addresses Metabotropic glutamate receptor 2 (Homo sapiens) (UniProt Q14416). In words: Antagonist activity at mGluR2 assessed as effect on glutamate-induced response. It counts as functional.
Test [5] has as its target T1, Metabotropic glutamate receptor 4. In words: Activation of human mGluR4 expressed in CHO cells coexpressing Gqi5 protein assessed as fold shifting of glutamate-induced response at 30 uM. It is filed as cell-based.
For test [6] the target is unchanged. Description: Activation of human mGluR4 expressed in CHO cells coexpressing Gqi5 protein in absence of glutamate. It is filed as cell-based.
The target in test [7] is Metabotropic glutamate receptor 7 (Homo sapiens) (UniProt Q14831). In words: Antagonist activity at mGluR7 assessed as effect on glutamate-induced response. It is filed as functional.
Test [8] has as its target Metabotropic glutamate receptor 8 (Homo sapiens) (UniProt O00222). Description: Antagonist activity at mGluR8 assessed as effect on glutamate-induced response. It is filed as functional.
In test [9] the target is Metabotropic glutamate receptor 5 (Homo sapiens) (UniProt P41594). Description: Antagonist activity at mGluR5 assessed as effect on glutamate-induced response. It counts as functional.
Sequence of Metabotropic glutamate receptor 5 (Homo sapiens) (P41594 21-1212 limits assumed): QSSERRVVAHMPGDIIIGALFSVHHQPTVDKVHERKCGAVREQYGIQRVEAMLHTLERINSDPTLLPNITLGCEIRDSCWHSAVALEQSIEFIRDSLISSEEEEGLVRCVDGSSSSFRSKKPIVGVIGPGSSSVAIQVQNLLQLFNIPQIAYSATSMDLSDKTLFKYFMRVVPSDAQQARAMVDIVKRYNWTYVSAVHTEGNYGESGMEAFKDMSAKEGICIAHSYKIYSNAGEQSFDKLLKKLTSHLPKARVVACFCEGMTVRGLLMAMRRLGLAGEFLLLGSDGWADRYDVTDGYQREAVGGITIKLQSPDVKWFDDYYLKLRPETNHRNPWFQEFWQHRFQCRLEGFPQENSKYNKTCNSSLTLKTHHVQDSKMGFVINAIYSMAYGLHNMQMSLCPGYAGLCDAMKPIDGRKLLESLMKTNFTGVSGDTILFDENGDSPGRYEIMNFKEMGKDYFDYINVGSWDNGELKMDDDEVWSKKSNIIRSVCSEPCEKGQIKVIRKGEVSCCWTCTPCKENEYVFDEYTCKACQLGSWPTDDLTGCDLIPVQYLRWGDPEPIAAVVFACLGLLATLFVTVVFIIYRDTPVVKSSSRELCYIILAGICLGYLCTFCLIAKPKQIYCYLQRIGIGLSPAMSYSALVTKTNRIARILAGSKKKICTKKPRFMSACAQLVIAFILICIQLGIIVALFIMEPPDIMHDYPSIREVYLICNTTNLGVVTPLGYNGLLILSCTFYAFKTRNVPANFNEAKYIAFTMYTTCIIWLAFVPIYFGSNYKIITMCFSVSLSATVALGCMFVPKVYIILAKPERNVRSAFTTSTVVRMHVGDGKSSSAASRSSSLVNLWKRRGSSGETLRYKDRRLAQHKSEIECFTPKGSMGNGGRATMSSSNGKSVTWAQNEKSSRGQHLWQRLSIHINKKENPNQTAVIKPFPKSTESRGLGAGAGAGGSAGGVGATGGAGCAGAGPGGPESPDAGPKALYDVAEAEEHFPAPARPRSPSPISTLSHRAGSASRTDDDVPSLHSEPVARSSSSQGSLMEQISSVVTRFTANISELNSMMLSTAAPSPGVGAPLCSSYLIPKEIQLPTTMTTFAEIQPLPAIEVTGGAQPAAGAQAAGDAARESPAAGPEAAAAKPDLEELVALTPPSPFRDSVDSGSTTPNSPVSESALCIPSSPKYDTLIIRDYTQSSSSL

Sequence of Metabotropic glutamate receptor 8 (Homo sapiens) (O00222 whole entry): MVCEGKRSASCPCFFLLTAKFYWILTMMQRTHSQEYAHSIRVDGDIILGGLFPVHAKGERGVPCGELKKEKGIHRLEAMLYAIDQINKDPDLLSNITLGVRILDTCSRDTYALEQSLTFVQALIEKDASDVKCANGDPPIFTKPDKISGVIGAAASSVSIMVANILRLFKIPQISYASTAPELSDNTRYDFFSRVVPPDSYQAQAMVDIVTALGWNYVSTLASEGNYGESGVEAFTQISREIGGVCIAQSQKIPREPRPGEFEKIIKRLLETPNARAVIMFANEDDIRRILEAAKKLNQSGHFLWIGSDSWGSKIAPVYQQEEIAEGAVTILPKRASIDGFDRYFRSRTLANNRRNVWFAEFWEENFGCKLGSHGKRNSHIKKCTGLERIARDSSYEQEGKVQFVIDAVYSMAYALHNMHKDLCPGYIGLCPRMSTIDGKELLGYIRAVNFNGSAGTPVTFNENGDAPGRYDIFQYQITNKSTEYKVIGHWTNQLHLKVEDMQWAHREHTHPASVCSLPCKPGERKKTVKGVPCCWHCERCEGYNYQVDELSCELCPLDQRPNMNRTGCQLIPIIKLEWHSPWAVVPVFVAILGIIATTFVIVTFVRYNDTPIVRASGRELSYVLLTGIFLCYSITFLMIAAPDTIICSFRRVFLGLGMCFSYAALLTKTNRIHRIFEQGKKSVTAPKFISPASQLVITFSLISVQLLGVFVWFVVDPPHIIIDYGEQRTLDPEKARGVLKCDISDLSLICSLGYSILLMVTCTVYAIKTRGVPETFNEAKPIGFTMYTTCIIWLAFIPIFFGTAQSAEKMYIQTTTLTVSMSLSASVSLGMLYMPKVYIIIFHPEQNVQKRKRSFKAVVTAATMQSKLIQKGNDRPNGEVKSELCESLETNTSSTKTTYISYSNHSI
Sequence of Metabotropic glutamate receptor 2 (Homo sapiens) (Q14416 19-872 limits assumed): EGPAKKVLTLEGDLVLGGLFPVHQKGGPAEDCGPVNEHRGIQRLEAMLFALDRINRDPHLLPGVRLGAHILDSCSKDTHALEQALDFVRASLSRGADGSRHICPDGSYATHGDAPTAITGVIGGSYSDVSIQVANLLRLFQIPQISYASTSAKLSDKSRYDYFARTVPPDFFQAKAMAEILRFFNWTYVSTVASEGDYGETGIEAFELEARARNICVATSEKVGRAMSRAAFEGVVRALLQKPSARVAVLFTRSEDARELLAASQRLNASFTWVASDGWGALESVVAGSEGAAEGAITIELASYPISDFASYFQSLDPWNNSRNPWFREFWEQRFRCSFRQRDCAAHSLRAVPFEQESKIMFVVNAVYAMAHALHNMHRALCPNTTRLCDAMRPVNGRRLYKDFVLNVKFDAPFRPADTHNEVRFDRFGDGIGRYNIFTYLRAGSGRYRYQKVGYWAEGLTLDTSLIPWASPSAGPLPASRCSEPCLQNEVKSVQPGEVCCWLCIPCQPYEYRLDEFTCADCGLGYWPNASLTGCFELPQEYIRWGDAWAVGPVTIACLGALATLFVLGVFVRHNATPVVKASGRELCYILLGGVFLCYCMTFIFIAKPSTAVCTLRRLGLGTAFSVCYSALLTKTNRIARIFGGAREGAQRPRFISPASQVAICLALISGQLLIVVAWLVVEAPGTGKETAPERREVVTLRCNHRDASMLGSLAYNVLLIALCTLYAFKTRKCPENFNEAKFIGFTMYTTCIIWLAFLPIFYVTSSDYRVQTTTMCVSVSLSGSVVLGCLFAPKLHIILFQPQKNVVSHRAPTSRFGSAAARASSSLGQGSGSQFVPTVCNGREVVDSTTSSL

One may read the pEC50 as the negative decadic logarithm of the EC50, by convention in mol/L. Consider `Cc1nc2ccccc2nc1N/N=C/c1cccc(O)c1`, for which the negative logarithm of the EC50 (pEC50) in test [1] is 5.62. Further, in test [2], the Activity came to 136%.
With `Cc1ccc(N2C(=O)c3ccccc3NC2C(C)c2ccccc2)cc1` (stereo not given), in test [1], the negative-log EC50 (pEC50) was 5.52. Moreover, the Activity in test [2] was determined as 129%.
Take `COc1ccccc1/C=N/Nc1nc2ccccc2nc1C`: the outcome in test [1] was inactive.
For the compound `Cc1nc2ccccc2nc1N/N=C/c1ccccc1O`, in test [1], the pEC50 was 5.39. Moreover, the Activity in test [2] was 57%.
The corresponding values for `CC(c1ccccc1)C1Nc2ccccc2C(=O)N1c1cccc(F)c1` (stereo not given) are less than 5.00 and 87%.
As to `O=C(Nc1ccccc1)[C@]12C[C@H]1/C(=N\O)c1ccccc1O2`, in [3], the Activity was found to be 30%.
As to `Cc1nc2ccccc2nc1N/N=C/c1ccccc1`, in [1], the pEC50 is 5.36. Also, in test [2], the Activity is 129%.
With `Cc1nc2ccccc2nc1N/N=C/c1ccc(F)cc1`, the pEC50 in test [1] was less than 5.30. For the same compound, in test [2], the Activity turned out to be 87%.
The corresponding values for `COC(=O)c1ccc(N2C(=O)c3ccccc3NC2C(C)c2ccccc2)cc1` (stereo not given) are less than 5.00 and 69%.
For `Cc1nc2ccccc2nc1N/N=C/c1ccc(O)cc1`, the result in test [4], in [6], in test [7], in test [8], in [9] and in [3] was inactive. For the same compound, the pEC50 in [1] is 5.77. Moreover, the fold change (FC) in test [5] came to 36. Besides, the Activity in [2] came out at 144%.
